Data reported in US20230265151A1, “GIP/GLP1 CO-AGONIST COMPOUNDS” (priority 2020, published 2023).
Where two headings read alike, the source gives them in different places.

Columns and labels:
Type in all cases: cell-based
hGIPR = target: T1, hGIPR (Homo sapiens, UniProt P48546); experiment: Functional cAMP formation (HTRF) in HEK-293 clonal cells expressing hGIPR, 0.1% bovine casein, without or with 1.0% human serum albumin; details: for Emax: percent of maximal response to GIP(1-42)NH2; for EC50: geometric mean
T1 construct: expressed in transfected cells
T1 sequence (P48546 22-466): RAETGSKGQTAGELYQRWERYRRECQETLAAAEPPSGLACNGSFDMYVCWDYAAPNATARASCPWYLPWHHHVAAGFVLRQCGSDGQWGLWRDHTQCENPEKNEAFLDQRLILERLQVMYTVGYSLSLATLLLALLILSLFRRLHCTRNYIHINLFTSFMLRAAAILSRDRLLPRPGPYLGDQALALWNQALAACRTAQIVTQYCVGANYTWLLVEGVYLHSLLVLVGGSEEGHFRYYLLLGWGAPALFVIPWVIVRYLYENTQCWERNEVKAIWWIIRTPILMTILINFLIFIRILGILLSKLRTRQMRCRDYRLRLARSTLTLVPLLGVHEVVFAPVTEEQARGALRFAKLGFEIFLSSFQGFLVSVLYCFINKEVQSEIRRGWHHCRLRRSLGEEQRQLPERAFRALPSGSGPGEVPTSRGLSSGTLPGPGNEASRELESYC
Outline: (§1)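 Cells were stimulated with peptide for 30 min at 37° C, then lysed in buffer carrying cAMP-d2 and anti-cAMP Eu3+-cryptate for a competitive HTRF read after at least 60 min at room temperature. The 665/620 nm ratio was converted to nM cAMP against a standard curve.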

hGLP-1R = hGLP-1R (Homo sapiens, UniProt P43220); experiment: Functional cAMP formation (HTRF) in HEK-293 clonal cells expressing hGLP-1R, 0.1% bovine casein, without or with 1.0% human serum albumin; design: expressed in transfected cells; details: for Emax: percent of maximal response to GLP-1(7-36)NH2; for EC50: cAMP, 0.1% bovine casein (no human serum albumin), geometric mean
Outline: as §1

hGCGR = target: T2, hGCGR (Homo sapiens, UniProt P47871); experiment: Functional cAMP formation (HTRF) in HEK-293 clonal cells expressing hGCGR, 0.1% bovine casein, without or with 1.0% human serum albumin; details: 37° C.
T2 construct: expressed in transfected cells
Outline: as §1

[1] = HEK293, cAMP, 37° C., 0.1% bovine casein and 1.0% human serum albumin, read-out: hGIPR Emax, % ± SEM
[2] = cAMP, 37° C., 0.1% bovine casein (no human serum albumin), read-out: hGIPR EC50, nM (SEM, n)
[3] = HEK293, cAMP, 37° C., 0.1% bovine casein and 1.0% human serum albumin, read-out: hGLP-1R Emax, % ± SEM
[4] = HEK293, cAMP, 37° C., 0.1% bovine casein, arithmetic mean, read-out: hGLP-1R Emax, % ± SEM
[5] = 37° C., read-out: hGLP-1R EC50, nM (SEM, n)
[6] = cAMP, 0.1% bovine casein (no human serum albumin), geometric mean, read-out: hGCGR EC50, nM (SEM, n)
[7] = cAMP, 0.1% bovine casein and 1.0% human serum albumin, geometric mean (SEM, n), read-out: hGCGR EC50, nM (SEM, n)
[8] = HEK293, read-out: hGLP-1R Emax, % ± SEM, 0.1% bovine casein and 1.0% human serum albumin, 37° C.
[9] = HEK293, read-out: hGLP-1R Emax, % ± SEM, cAMP, 37° C., 0.1% bovine casein, arithmetic mean
[10] = hGCGR EC50, nM (SEM, n), 0.1% bovine casein and 1.0% human serum albumin, geometric mean
[11] = hGCGR EC50, nM (SEM, n), cAMP, 0.1% bovine casein (no human serum albumin), geometric mean

hGLP-1R, sequence (P43220 24-463): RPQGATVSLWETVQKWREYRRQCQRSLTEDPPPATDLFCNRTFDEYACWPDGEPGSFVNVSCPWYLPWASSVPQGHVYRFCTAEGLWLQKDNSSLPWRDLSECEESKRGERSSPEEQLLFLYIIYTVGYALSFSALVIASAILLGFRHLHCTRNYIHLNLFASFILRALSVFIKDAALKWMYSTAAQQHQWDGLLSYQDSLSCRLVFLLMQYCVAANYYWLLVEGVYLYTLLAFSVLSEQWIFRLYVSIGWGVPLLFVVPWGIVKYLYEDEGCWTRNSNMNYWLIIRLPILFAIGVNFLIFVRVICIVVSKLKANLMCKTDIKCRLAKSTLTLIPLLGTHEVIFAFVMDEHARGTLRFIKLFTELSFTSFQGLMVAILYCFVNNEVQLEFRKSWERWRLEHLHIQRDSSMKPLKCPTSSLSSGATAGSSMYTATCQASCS
T2 sequence (P47871 26-477): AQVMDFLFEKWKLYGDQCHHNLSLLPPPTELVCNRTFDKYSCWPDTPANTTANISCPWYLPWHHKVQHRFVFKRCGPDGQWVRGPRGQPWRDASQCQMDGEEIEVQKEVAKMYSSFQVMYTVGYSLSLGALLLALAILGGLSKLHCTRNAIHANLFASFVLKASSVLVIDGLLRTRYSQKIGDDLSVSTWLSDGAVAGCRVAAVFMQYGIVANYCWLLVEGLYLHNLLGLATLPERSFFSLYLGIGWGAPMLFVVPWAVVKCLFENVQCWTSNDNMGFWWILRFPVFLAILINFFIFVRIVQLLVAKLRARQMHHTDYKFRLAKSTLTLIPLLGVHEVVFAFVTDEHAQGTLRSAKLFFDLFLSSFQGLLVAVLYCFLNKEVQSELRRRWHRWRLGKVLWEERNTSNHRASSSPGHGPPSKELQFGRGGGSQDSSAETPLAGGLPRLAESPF

Row | SMILES | Emax (hGIPR; [1]) [%] | Emax (hGIPR; HEK293, cAMP, 37° C., 0.1% bovine casein, arithmetic mean, read-out: hGIPR Emax, % ± SEM) [%] | EC50 (hGIPR; [2]) [nM] | Emax (hGLP-1R; [3]) [%] | Emax (hGLP-1R; [4]) [%] | EC50 (hGLP-1R; [5]) [nM] | EC50 (hGCGR; [6]) [nM] | EC50 (hGCGR; [7]) [nM] | Emax (hGIPR; HEK293, read-out: hGIPR Emax, % ± SEM, cAMP, 37° C., 0.1% bovine casein, arithmetic mean) [%] | EC50 (hGIPR; hGIPR EC50, nM (SEM, n), cAMP, 37° C., 0.1% bovine casein (no human serum albumin)) [nM] | Emax (hGLP-1R; [8]) [%] | Emax (hGLP-1R; [9]) [%] | EC50 (hGLP-1R; hGLP-1R EC50, nM (SEM, n), 37° C.) [nM] | EC50 (hGCGR; [10]) [nM] | EC50 (hGCGR; [11]) [nM] | EC50 (hGIPR; hGIPR EC50, nM (SEM, n), 0.1% bovine casein and 1.0% human serum albumin, 37° C.) [nM]
1 | CC[C@H](C)[C@H](NC(=O)[C@H](CC(C)C)NC(=O)[C@](C)(Cc1ccc(O)cc1)NC(=O)[C@@H](CCC(=O)O)NC(=O)[C@@H](NC(=O)[C@H](Cc1ccccc1)NC(=O)[C@H](CCCCNC(=O)COCCOCCNC(=O)COCCOCCNC(=O)CCCCCCCCCCCCC(=O)O)NC(=O)C(C)(C)NC(=O)[C@H](CCC(N)=O)NC(=O)[C@H](C)NC(=O)[C@H](CCCCNC(=O)COCCOCCNC(=O)COCCOCCNC(=O)CCCCCCCCCCCCC(=O)O)NC(=O)[C@H](CCCN)NC(=O)[C@H](CC(=O)O)NC(=O)[C@H](CC(C)C)NC(=O)[C@](C)(CC(C)C)NC(=O)[C@@H](NC(=O)C(C)(C)NC(=O)[C@H](Cc1ccc(O)cc1)NC(=O)[C@H](CC(=O)O)NC(=O)[C@H](CO)NC(=O)[C@@H](NC(=O)[C@](C)(Cc1ccccc1F)NC(=O)[C@@H](NC(=O)CNC(=O)[C@H](CCC(=O)O)NC(=O)C(C)(C)NC(=O)[C@@H](N)Cc1ccc(O)cc1)[C@@H](C)O)[C@@H](C)O)[C@@H](C)CC)[C@@H](C)CC)C(=O)N[C@@H](CCC(=O)O)C(=O)NCC(=O)NCC(=O)N1CCC[C@H]1C(=O)N[C@@H](CO)C(=O)N[C@@H](CO)C(=O)NCC(=O)N[C@@H](C)C(=O)N1CCC[C@H]1C(=O)N1CCC[C@H]1C(=O)N1CCC[C@H]1C(=O)N[C@@H](CO)C(N)=O [Example 385] | 83.5 | 95.2 | 0.0154 | 112 | 100 | 0.189 | > 9950 | > 9950 |  |  |  |  |  |  |  | 
2 | CC[C@H](C)[C@H](NC(=O)[C@H](CC(C)C)NC(=O)[C@](C)(Cc1ccc(O)cc1)NC(=O)[C@@H](CCC(=O)O)NC(=O)[C@@H](NC(=O)[C@H](Cc1ccccc1)NC(=O)[C@H](CCCCNC(=O)COCCOCCNC(=O)COCCOCCNC(=O)CC[C@H](NC(=O)CCCCCCCCCCCCC(=O)O)C(=O)O)NC(=O)C(C)(C)NC(=O)[C@H](CCC(N)=O)NC(=O)[C@H](C)NC(=O)[C@H](CCCCNC(=O)COCCOCCNC(=O)COCCOCCNC(=O)CC[C@H](NC(=O)CCCCCCCCCCCCC(=O)O)C(=O)O)NC(=O)[C@H](CCCN)NC(=O)[C@H](CC(=O)O)NC(=O)[C@H](CC(C)C)NC(=O)[C@](C)(CC(C)C)NC(=O)[C@@H](NC(=O)C(C)(C)NC(=O)[C@H](Cc1ccncc1)NC(=O)[C@H](CC(=O)O)NC(=O)[C@H](CO)NC(=O)[C@@H](NC(=O)[C@](C)(Cc1ccccc1F)NC(=O)[C@@H](NC(=O)CNC(=O)[C@H](CCC(=O)O)NC(=O)C(C)(C)NC(=O)[C@@H](N)Cc1ccc(O)cc1)[C@@H](C)O)[C@@H](C)O)[C@@H](C)CC)[C@@H](C)CC)C(=O)N[C@@H](CCC(=O)O)C(=O)NCC(=O)NCC(=O)N1CCC[C@H]1C(=O)N[C@@H](CO)C(=O)N[C@@H](CO)C(=O)NCC(=O)N[C@@H](C)C(=O)N1CCC[C@H]1C(=O)N1CCC[C@H]1C(=O)N1CCC[C@H]1C(=O)N[C@@H](CO)C(N)=O [Example 357] | 78.2 |  | 0.011 | 92.8 |  | 0.649 | > 10100 | > 9950 |  |  |  |  |  |  |  | 
3 | CC[C@H](C)[C@H](NC(=O)[C@H](CCCN)NC(=O)[C@H](CC(=O)O)NC(=O)[C@H](CC(C)C)NC(=O)[C@](C)(CC(C)C)NC(=O)[C@@H](NC(=O)[C@H](CO)NC(=O)[C@H](Cc1ccc2ccccc2c1)NC(=O)[C@H](CC(=O)O)NC(=O)[C@H](CO)NC(=O)[C@@H](NC(=O)[C@](C)(Cc1ccccc1F)NC(=O)[C@@H](NC(=O)CNC(=O)[C@H](CCC(=O)O)NC(=O)C(C)(C)NC(=O)[C@@H](N)Cc1ccc(O)cc1)[C@@H](C)O)[C@@H](C)O)[C@@H](C)CC)C(=O)N[C@@H](C)C(=O)N[C@@H](CCC(N)=O)C(=O)NC(C)(C)C(=O)N[C@@H](CCCCNC(=O)COCCOCCNC(=O)COCCOCCNC(=O)CC[C@H](NC(=O)CCCCCCCCCOc1ccc(C(=O)O)cc1)C(=O)O)C(=O)N[C@@H](Cc1ccccc1)C(=O)N[C@H](C(=O)N[C@H](CCC(=O)O)C(=O)N[C@@](C)(Cc1ccc(O)cc1)C(=O)N[C@@H](CC(C)C)C(=O)N[C@H](C(=O)N[C@@H](CCCCNC(=O)COCCOCCNC(=O)COCCOCCNC(=O)CC[C@H](NC(=O)CCCCCCCCCOc1ccc(C(=O)O)cc1)C(=O)O)C(=O)NCC(=O)NCC(=O)N1CCC[C@H]1C(=O)N[C@@H](CO)C(=O)N[C@@H](CO)C(=O)NCC(=O)N[C@@H](C)C(=O)N1CCC[C@H]1C(=O)N1CCC[C@H]1C(=O)N1CCC[C@H]1C(=O)N[C@@H](CO)C(N)=O)[C@@H](C)CC)[C@@H](C)CC [Example 284] |  |  |  |  |  |  |  |  | 98.3 | 0.0389 | 112 | 110 | 0.505 | > 9950 | > 9950 | 
4 | CC[C@H](C)[C@H](NC(=O)[C@H](CC(C)C)NC(=O)[C@](C)(Cc1ccc(O)cc1)NC(=O)[C@H](CCCCNC(=O)CCCCCCCNC(=O)COCCOCCNC(=O)CC[C@H](NC(=O)CCCCCCCCCCCCC(=O)O)C(=O)O)NC(=O)[C@@H](NC(=O)[C@H](Cc1ccccc1)NC(=O)[C@H](CCCN)NC(=O)C(C)(C)NC(=O)[C@H](CCC(N)=O)NC(=O)[C@H](C)NC(=O)[C@H](CCC(N)=O)NC(=O)[C@H](CCCN)NC(=O)[C@H](CC(=O)O)NC(=O)[C@H](CC(C)C)NC(=O)[C@](C)(CC(C)C)NC(=O)[C@@H](NC(=O)C(C)(C)NC(=O)[C@H](Cc1ccncc1)NC(=O)[C@H](CC(=O)O)NC(=O)[C@H](CO)NC(=O)[C@@H](NC(=O)[C@](C)(Cc1ccccc1F)NC(=O)[C@@H](NC(=O)CNC(=O)[C@H](CCC(=O)O)NC(=O)C(C)(C)NC(=O)[C@@H](N)Cc1ccc(O)cc1)[C@@H](C)O)[C@@H](C)O)[C@@H](C)CC)[C@@H](C)CC)C(=O)N[C@@H](CCCCNC(=O)CCCCCCCNC(=O)COCCOCCNC(=O)CC[C@H](NC(=O)CCCCCCCCCCCCC(=O)O)C(=O)O)C(=O)NCC(=O)NCC(=O)N1CCC[C@H]1C(=O)N[C@@H](CO)C(=O)N[C@@H](CO)C(=O)NCC(=O)N[C@@H](C)C(=O)N1CCC[C@H]1C(=O)N1CCC[C@H]1C(=O)N1CCC[C@H]1C(=O)N[C@@H](CO)C(N)=O [Example 452] | 100 |  | 0.0192 |  | 117 | 0.259 | > 9950 | > 9950 |  |  |  |  |  |  |  | 
5 | CC[C@H](C)[C@H](NC(=O)[C@H](CCCN)NC(=O)[C@H](CC(=O)O)NC(=O)[C@H](CC(C)C)NC(=O)[C@](C)(CC(C)C)NC(=O)[C@@H](NC(=O)[C@H](CO)NC(=O)[C@H](Cc1ccncc1)NC(=O)[C@H](CC(=O)O)NC(=O)[C@H](CO)NC(=O)[C@@H](NC(=O)[C@](C)(Cc1ccccc1F)NC(=O)[C@@H](NC(=O)CNC(=O)[C@H](CCC(=O)O)NC(=O)C(C)(C)NC(=O)[C@@H](N)Cc1ccc(O)cc1)[C@@H](C)O)[C@@H](C)O)[C@@H](C)CC)C(=O)N[C@@H](C)C(=O)N[C@@H](CCC(N)=O)C(=O)NC(C)(C)C(=O)N[C@@H](CCC(=O)O)C(=O)N[C@@H](Cc1ccccc1)C(=O)N[C@H](C(=O)N[C@@H](CCCCNC(=O)COCCOCCNC(=O)COCCOCCNC(=O)CC[C@H](NC(=O)CCCCCCCCCCOc1ccc(C(=O)O)cc1)C(=O)O)C(=O)N[C@@](C)(Cc1ccc(O)cc1)C(=O)N[C@@H](CC(C)C)C(=O)N[C@H](C(=O)N[C@@H](CCCCNC(=O)COCCOCCNC(=O)COCCOCCNC(=O)CC[C@H](NC(=O)CCCCCCCCCCOc1ccc(C(=O)O)cc1)C(=O)O)C(=O)NCC(=O)NCC(=O)N1CCC[C@H]1C(=O)N[C@@H](CO)C(=O)N[C@@H](CO)C(=O)NCC(=O)N[C@@H](C)C(=O)N1CCC[C@H]1C(=O)N1CCC[C@H]1C(=O)N1CCC[C@H]1C(=O)N[C@@H](CO)C(N)=O)[C@@H](C)CC)[C@@H](C)CC [Example 286] |  |  |  |  |  |  |  |  |  |  | 90.3 | 110 |  | > 9950 | > 9950 | 2.18
